Experimental data: US4569915A, “P. obtusus strain” (Cetus Corporation, priority 1984, dated 1986)

Assays:
[1] = system: L. betulinus P2O; experiment: Relative activities of L. betulinus P2O on pyranose substrates; format: biochemical; settings: 20 mM substrate; D-glucose = 100
Procedure: The resulting clear yellow supernatant was further purified using DEAE chromatography in 30 mM TRIS-HCl, pH 8.5, and eluted from the 5×16 cm column using a 0-300 mM NaCl gradient. The protein eluted at about 75 mM NaCl. Fractions containing the peak of P2O activity were pooled and concentrated to 0.5 ml by Amicon PM30 ultrafiltration, and then fractionated, according to native molecular weight, using a 1.5×95 cm Biogel P300 column. The column was run at a flow rate of 0.1 ml per minute, using 100 mM sodium phosphate, pH 7.0. The protein eluted in a fraction corresponding to an apparent native molecular weight of about 300,000 daltons. […] Based on the molecular weight data, the protein appears to be a homotetramer.
The enzyme contains a covalently attached flavin on each subunit, and has absorption maxima at 275, 360, and 450 nm. The relative activities of the purified enzyme on the pyranose substrates D-glucose, L-sorbose, D-xylose and delta-D-gluconolactone are 100: 43: 43: 26, respectively, at 20 mM substrate concentration. The enzyme has a broad pH optimum between about 5 and 6.

[2] = system: P. obtusus P2O; experiment: Relative activities of P. obtusus P2O on pyranose substrates; format: biochemical; settings: about 1% (w/v) substrate; D-glucose = 100
Procedure: The P2O enzyme preparation from Example II was purified further using DEAE chromatography in 30 mM TRIS-HCl, pH 8.5, containing 2 mM EDTA and 10 ug/ml PMSF. The sample was eluted from a 5×16 cm column using a gradient of 0-300 mM NaCl. P2O activity was monitored using the orthodianisidine colorometric assay for the peroxide co-product, essentially as described by Ruelius et al., Biochim et Biophys. Acta 167, 493-500 (1968). P2O activity eluted at about 50 mM NaCl. Fractions containing the peak activity were pooled and concentrated to 0.5 ml by ultrafiltration using Amicon filters obtained from Amicon Corp. (Danvers, MA). Biogel P300 was obtained from Biorad Laboratories (Richmond, CA). The sample was further purified by molecular sieve chromatography using a 1.5×95 cm Biogel P300 column in 100 mM sodium phosphate, pH 7 buffer. The P2O activity eluted at a sharp peak corresponding to an apparent native molecular weight of about 290,000 daltons.
The enzyme appears to contain one covalently bound flavin molecule per subunit (detectable as UV-fluorescence in the 68,000 dalton SDS-PAGE band), and has absorption maxima at 276, 357 and 456 nm. The enzyme has a sedimentation coefficient of about 11.4, as determined by sucrose gradient ultracentrifugation. The relative activities of the enzyme, on D-glucose, L-sorbose, D-xylose, and D-gluconolactone are 100: 80: 48: 12, respectively, at about 1% (w/v) substrate concentration. As noted above with respect to FIG. 2, the enzyme has a broad pH optimum of between about 4.5 and 5.5.

[3] = biological target: T1, C. versicolor P2O (Trametes versicolor, UniProt P79076); experiment: Relative activities of C. versicolor P2O on pyranose substrates; format: biochemical; settings: 1% (w/v) substrate; D-glucose = 100
T1 construct: A single band having a molecular weight of about 65,000 was observed when the enzyme was analyzed by SDS-PAGE; made in house; host or cells: C. versicolor itself (native producer; high-producer culture selected from NRRL 15152 / CMCC 0748)
Procedure: The enzyme was applied to a 2.6×40 cm DEAE column, washed, and eluted using a 0-300 mM NaCl gradient. The P2O elutes at about 220 mM. Portions of each fraction were assayed for P2O activity, by monitoring peroxide generation conventionally. Protein concentration was also determined by a conventional method. The fractions containing P2O activity were pooled and concentrated by ultrafiltration with an Amicon PM10 filter obtained from Amicon Corp. Peak fractions were dialyzed into 30 mM sodium acetate (pH 5.5), adjusted to 1.5M NaCl and loaded onto a phenylsepharose column. The P2O was eluted with a 0-1.5M NaCl gradient in 50 mM sodium acetate, pH 5.5. The enzyme eluted at about 1.1M NaCl. Fractions containing the peak activity were pooled and concentrated to 0.5 ml by Amicon PM30 ultrafiltration and sized according to native molecular weight using a 1.5×95 cm Biogel P300 column. Elution was at 0.1 ml/minute with 100 mM sodium phosphate, pH 7.0. Using known molecular weight markers in the column, the enzyme's apparent native molecular weight was calculated to be about 130,000 daltons. A single band having a molecular weight of about 65,000 was observed when the enzyme was analyzed by SDS-PAGE. The enzyme thus appears to be a homodimer. The enzyme was judged to be about 95% pure, based on the staining intensity of protein bands in SDS-PAGE.
The relative activities of the enzyme on the substrates D-glucose, L-sorbose, D-xylose and delta-D-gluconolactone are 100: 74: 41: 6, respectively, at 1% (w/v) substrate concentration. The enzyme has a pH optimum of about 5.0.

[4] = Ericsson et al. and Lindberg et al.; cited from earlier work
[5] = Nonenzymatic breakdown of glucosone (UV scan); format: physicochemical; settings: 0.5% solution
Source text: Secondly, studies indicate that pure glucosone undergoes relatively rapid, nonenzymatic breakdown above a pH of about 7.0. In one experiment, a 0.5% solution of highly purified glucosone (prepared by enzymatic conversion of glucose by a purified P. obtusus P2O enzyme at pH 4.4) was brought to pH 7.0 in a buffered solution. Immediately thereafter, the solution was scanned spectrophotometrically in the UV range between 200 and 350 nm, at one minute intervals.

[6] = Glucosone breakdown on control of reaction pH by base addition; format: physicochemical; settings: NaOH versus buffer such as 1M sodium bicarbonate or 1M TRIS-HCl
Procedure: Attempts to control reaction pH by the periodic addition of base have not been entirely successful. […] Therefore, in order to reduce glucosone breakdown, the base must be added in a manner which minimizes local regions of high pH in the solution. […] Introduction of the buffer with rapid mixing further reduces glucosone breakdown, presumably by reducing locally-elevated pH levels which occur when the buffer is added. It was noted above that even pH's in the range of 7.0 can lead to relatively rapid nonenzymatic glucosone breakdown. Ideally therefore, where high purity and yield are desired, one would like to avoid adding base to the reaction to offset the buildup of acidic by-products.

OC[C@H]1OC(O)[C@H](O)[C@@H](O)[C@@H]1O (stereo partly drawn) [D-glucose]
relative activity of L. betulinus P2O on substrate [1]: 100
relative activity of P. obtusus P2O on substrate [2]: 100
relative activity of C. versicolor P2O on substrate [3]: 100

OC1OC[C@@H](O)[C@H](O)[C@H]1O (stereo partly drawn) [D-xylose]
relative activity of L. betulinus P2O on substrate [1]: 43
relative activity of P. obtusus P2O on substrate [2]: 48
relative activity of C. versicolor P2O on substrate [3]: 41

O=C(CO)[C@@H](O)[C@H](O)[C@@H](O)CO [L-sorbose]
relative activity of L. betulinus P2O on substrate [1]: 43
relative activity of P. obtusus P2O on substrate [2]: 80
relative activity of C. versicolor P2O on substrate [3]: 74

O=C1O[C@H](CO)[C@@H](O)[C@H](O)[C@H]1O [delta-D-gluconolactone]
relative activity of L. betulinus P2O on substrate [1]: 26
relative activity of P. obtusus P2O on substrate [2]: 12
relative activity of C. versicolor P2O on substrate [3]: 6

O=CC(=O)[C@@H](O)[C@H](O)[C@H](O)CO [glucosone, D-arabino-2-hexosulose]
stability under alkaline conditions [4]: breaks down under alkaline conditions
310 nm peak (nonenzymatic breakdown) ([5]; pH 6.0, several minutes): no initial peak at 310 nm was observed nor did one form
increase of 310 nm peak (nonenzymatic breakdown) ([5]; pH 7.0, five minute period): increasing several-fold
glucosone breakdown with periodic NaOH addition [6]: more glucosone breakdown
